# Measured values as given in article PMC12416277, “Phytochemical alkaloids orchestrate immunometabolism against viral infections” (National Science Review, 2025).
# Key:
# HSV-1 = experiment: microbe, parasite or virus in culture; type: cell-based, herpes simplex virus 1 (HSV-1); conditions: Human alphaherpesvirus 1, A549
# VSV [1] = type: cell-based, vesicular stomatitis virus (VSV)
# H1N1 [2] = experiment: H1N1 mRNA in WT, TPCN1-/-, TPCN2-/- A549 cells or with nimodipine, qRT-PCR; type: cell-based, influenza virus A (H1N1)
# [3] = system: IFNB1, IFIT1, IFIT2 and IFI44 mRNA; experiment: IFNB1 and ISG mRNA expression in A549, PBMC and MEF cells (qRT-PCR); type: cell-based; conditions: A549, PBMC, MEF cells
# STAT1 = experiment: Confocal analysis of nuclear localization of STAT1 in A549 cells; type: cell-based
# VSV [4] = type: cell-based, vesicular stomatitis virus (VSV); remark: listed apart in the source
# NPC1 [5] = target: T1, NPC1 (Homo sapiens, UniProt O15118); experiment: Bio-Tet streptavidin pull-down from cell lysates; type: binding
# T1 sequence (O15118 23-1278): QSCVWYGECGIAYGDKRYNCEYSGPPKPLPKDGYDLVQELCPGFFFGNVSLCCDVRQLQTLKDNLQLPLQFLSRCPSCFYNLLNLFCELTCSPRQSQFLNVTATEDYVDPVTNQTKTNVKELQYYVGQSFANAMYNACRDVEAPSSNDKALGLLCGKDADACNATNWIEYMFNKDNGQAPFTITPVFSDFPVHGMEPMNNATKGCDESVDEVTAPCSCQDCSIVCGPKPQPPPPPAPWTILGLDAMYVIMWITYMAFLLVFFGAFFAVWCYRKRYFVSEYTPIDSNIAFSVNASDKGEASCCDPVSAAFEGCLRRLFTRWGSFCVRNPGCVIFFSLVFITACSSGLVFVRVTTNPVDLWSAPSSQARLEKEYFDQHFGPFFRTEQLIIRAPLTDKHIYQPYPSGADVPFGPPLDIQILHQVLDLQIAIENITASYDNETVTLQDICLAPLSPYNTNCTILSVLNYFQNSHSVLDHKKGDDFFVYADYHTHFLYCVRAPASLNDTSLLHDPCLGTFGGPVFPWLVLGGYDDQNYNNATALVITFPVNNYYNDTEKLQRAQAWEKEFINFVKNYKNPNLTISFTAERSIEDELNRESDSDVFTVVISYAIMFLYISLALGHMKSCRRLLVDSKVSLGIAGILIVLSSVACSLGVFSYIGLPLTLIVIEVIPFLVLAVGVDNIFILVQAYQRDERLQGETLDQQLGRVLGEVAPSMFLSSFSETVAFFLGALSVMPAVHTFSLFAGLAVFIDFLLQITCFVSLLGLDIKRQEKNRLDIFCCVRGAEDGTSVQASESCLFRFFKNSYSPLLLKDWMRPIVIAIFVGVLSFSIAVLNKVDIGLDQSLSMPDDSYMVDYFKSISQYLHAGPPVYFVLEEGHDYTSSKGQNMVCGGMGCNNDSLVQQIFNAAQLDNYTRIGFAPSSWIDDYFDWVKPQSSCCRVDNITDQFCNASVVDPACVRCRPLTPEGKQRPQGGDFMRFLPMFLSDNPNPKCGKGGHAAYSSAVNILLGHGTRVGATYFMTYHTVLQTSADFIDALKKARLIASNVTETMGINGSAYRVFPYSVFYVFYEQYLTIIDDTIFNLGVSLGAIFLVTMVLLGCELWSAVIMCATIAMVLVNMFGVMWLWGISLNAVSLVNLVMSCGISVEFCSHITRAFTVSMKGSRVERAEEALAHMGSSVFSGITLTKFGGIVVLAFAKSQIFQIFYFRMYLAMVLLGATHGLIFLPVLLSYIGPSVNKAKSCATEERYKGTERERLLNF
# sgRNA-Npc1 cells = type: cell-based, mouse
# NPC1/STING axis = experiment: Ifit1 and Ifit2 mRNA in sgRNA-EV, sgRNA Npc1 and Flag-NPC1 cells stimulated with DMXAA and Tet; type: cell-based, mouse; conditions: sgRNA-EV vs NPC1-deficient vs Flag-NPC1 cells, DMXAA
# Protocol: Figure 5. The dual functions of Tet to resist viral entry and activate antiviral immunity through the NPC1/STING axis. (a, b) Confocal analysis of Bio-Tet with CD63 (a) or NPC1 (b) in A549 cells, scale bar: 10 μm. (c) Binding affinity analysis of NPC1 with itraconazole, U18666A, or Tet was determined by SPR. (d, e) CETSA (d) and DARTS (e) analysis of NPC1 with Tet in HepG2 cells. (f) Streptavidin-covered beads with biotin, Bio-Tet, Bio-Tet + Tet were incubated with cell lysates. As indicated, the levels of NPC1 protein in bound proteins (IP) and total proteins (Input) were determined using immunoblotting. (g) Viral mRNA expression in siNPC1-transfected cells treated with Tet. (h) Viral mRNA expression in sgRNA-EV, sgRNA Npc1, and sgRNA Npc1 cells transfected with Flag-NPC1 treated with Tet. (i) Ifit1 and Ifit2 mRNA expression in sgRNA-EV, sgRNA Npc1, and sgRNA Npc1 cells transfected with Flag-NPC1 stimulated with DMXAA and Tet. (j) Schematic of LysoIP-DEG. (k) Immunoblotting analysis of the indicated proteins in LysoIP-DEG in Tet-treated HepG2 cells. (l) Schematic model of NPC1/STING axis-mediated viral inhibition by Tet. The schematic diagram (j) and model (l) were created by Figdraw. For a, b, g, h, i, n = 3 independent experiments. All data are presented as mean ± SD. P values were calculated using one-way ANOVA (g, h, i). NS, not significant. […]
# VSV [6] = type: in vivo, C57/BL6J mice; conditions: mice
# H1N1 [7] = experiment: In vivo H1N1 infection mouse model; design: species or system C57/BL6J mice; conditions: mice
# NPC1 [8] = target: T1, NPC1; experiment: Drug affinity responsive target stability (DARTS); conditions: 150 µM, pronase digestion
# [9] = H1N1, intranasal administration
structure (smiles),measurement,setting,value
"COc1ccc2cc1Oc1ccc(cc1)C[C@H]1c3cc(c(OC)cc3CCN1C)Oc1c(OC)c(OC)cc3c1[C@H](C2)N(C)CC3 [Tet, tetrandrine]",EC50,HSV-1,1590 nM
same,"VSV replication (VSV-G protein, immunoblotting)",VSV [1],inhibited
same,H1N1 replication,H1N1 [2],suppressed
same,antiviral efficacy,H1N1 [2]; with nimodipine treatment,remained unchanged
same,IFNB1 and ISGs mRNA,[3],upregulation
same,STAT1 nucleus translocation,STAT1,promoted STAT1 nucleus translocation
same,antiviral effect and boosted ISGs,VSV [4],significantly attenuated
same,competition of Bio-Tet/NPC1 interaction,NPC1 [5],competitively inhibited
same,antiviral effects,sgRNA-Npc1 cells,attenuated but restored with Flag-tagged NPC1 reintroduction
same,Ifit1 and Ifit2 expression,NPC1/STING axis,"observed in sgRNA-EV cells, but this effect was abolished in NPC1-deficient cells and restored in sgRNA-Npc1 cells transfected with Flag-NPC1"
same,IL-6 level in serum,VSV [6]; VSV infection,markedly decreased
same,TNF-α level in serum,VSV [6]; VSV infection,markedly decreased
same,VSV-G protein expression in lungs and spleens,VSV [6]; VSV infection,inhibited
same,lung pathology (H&E),VSV [6]; VSV infection,reduced lung pathology and cellular infiltrations
same,"reduction of VSV genome copies in liver, lung, and spleen tissues","VSV [6]; intraperitoneal and intragastric, 10–60 mg/kg, 24 hours pre-VSV infection",0.5–1 log₁₀
same,NP protein expression in lung tissue,H1N1 [7]; H1N1,inhibited
same,alveolar damage and inflammatory infiltrations in lung tissues (H&E),H1N1 [7]; H1N1,significantly alleviated
same,body weight recovery,H1N1 [7]; [9],expedited body weight recovery
same,survival rates,H1N1 [7]; [9],improved survival rates
same,NPC1 stability (DARTS),NPC1 [8],enhanced NPC1 stability against degradation
